Results as given in patent US7723373B2, “Indole-3-sulphur derivatives” (AstraZeneca AB, priority 2002, dated 2010).

Target: T1, rhCRTh2 (Homo sapiens, UniProt Q9Y5Y4)
T1 construct: expressed in transfected cells; host or cells: HEK cells (membrane preparation)
T1 sequence (Q9Y5Y4 1-395): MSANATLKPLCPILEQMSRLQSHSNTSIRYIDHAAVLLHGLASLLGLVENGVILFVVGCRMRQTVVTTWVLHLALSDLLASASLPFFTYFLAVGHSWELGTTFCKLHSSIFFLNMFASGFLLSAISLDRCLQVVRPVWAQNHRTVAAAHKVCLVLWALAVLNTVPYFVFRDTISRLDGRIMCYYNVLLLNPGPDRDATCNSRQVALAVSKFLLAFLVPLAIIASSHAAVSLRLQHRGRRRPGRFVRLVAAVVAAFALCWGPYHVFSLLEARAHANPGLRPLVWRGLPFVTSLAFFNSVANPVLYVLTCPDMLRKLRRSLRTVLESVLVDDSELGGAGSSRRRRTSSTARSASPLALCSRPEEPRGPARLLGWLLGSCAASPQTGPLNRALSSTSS
Assay: Ligand binding assay ([3H]PGD2 SPA, HEK cell membranes)
Conditions: [3H]PGD2 binding to membranes of HEK cells expressing rhCRTh2/Gα16, SPA beads, 2 hours at room temperature
Experimental: [^3H]PGD2 was purchased from Perkin Elmer Life Sciences with a specific activity of 100-210 Ci/mmol. All other chemicals were of analytical grade.
HEK cells expressing rhCRTh2/Gα16 were routinely maintained in DMEM containing 10% Fetal Bovine Serum (HyClone), 1 mg/ml geneticin, 2 mM L-glutamine and 1% non-essential amino acids. For the preparation of membranes, the adherent transfected HEKcells were grown to confluence in two layer tissue culture factories (Fisher, catalogue number TKT-170-070E). Maximal levels of receptor expression were induced by addition of […] sodium butyrate for the last 18 hours of culture. The adherent cells were washed once with phosphate buffered saline (PBS, 50 ml per cell factory) and detached by the addition of 50 ml per cell factory of ice-cold membrane homogenisation buffer [20 mM HEPES (pH 7.4), 0.1 mM dithiothreitol, 1 mM EDTA, 0.1 mM phenyl methyl sulphonyl fluoride and 100 μg/ml bacitracin]. […] The final pellet was re-suspended in 4 ml of membrane homogenisation buffer per cell factory used and the protein content determined. […]
All assays were performed in Corning clear bottomed, white 96-well NBS plates (Fisher). […] (The optimum coating concentrations were determined for each batch of membranes) The beads were pelleted by centrifugation (800×g for 7 minutes at 4° C.), washed once with assay buffer (50 mM HEPES pH 7.4 containing 5 mM magnesium chloride) and finally re-suspended in assay buffer at a bead concentration of 10 mg/ml.
Each assay contained 20 μl of 6.25 nM [^3]PGD2, 20 μl membrane saturated SPA beads both in assay buffer and 10 μl of compound solution or 13,14-dihydro-15-keto prostaglandin D2 (DK-PGD2, for determination of non-specific binding Cayman chemical company). […] The assay plate was incubated at room temperature for 2 hours and counted on a Wallac Microbeta liquid scintillation counter (1 minute per well).

pIC50	IC50	Compound
7	–	5-chloro-3-[(4-chlorophenyl)sulfonyl]-6-cyano-2-methyl-1H-indole-1-acetic acid [Example 6]
–	7.94 nM	Cc1c(S(=O)(=O)c2ccc(Cl)cc2)c2cc(Cl)ccc2n1CC(=O)O [Example 2, 5-chloro-3-[(4-chlorophenyl)sulfonyl]-2-methyl-1H-indole-1-acetic acid]
–	251 nM	Cc1ccc2c(c1)c([S+]([O-])c1ccc(Cl)cc1)c(C)n2CC(=O)O (stereo not drawn) [Example 7, 3-[(4-chlorophenyl)sulfinyl]-2,5-dimethyl-1H-indole-1-acetic acid]
